One series concerns PC-3. Kind of series: Cytotoxicity against human PC3 cells assessed growth inhibition. It is filed as functional, cell-based.
The next series concerns LNCaP. Kind of series: Cytotoxicity against human LNCAP cells. It is filed as cell-based.

Each structure is given as a SMILES string.

In the series with PC-3, `CC(C)(O)c1cn(-c2ccc([N+](=O)[O-])c(C(F)(F)F)c2)nn1` registered an IC50 of 63 µM.
Consider `CC(C)(O)c1cn(-c2ccc(C#N)c(C(F)(F)F)c2)nn1`, for which the Activity entry in the series on LNCaP was “Toxic”.
`CC(C)(O)c1cn(-c2ccc(Cl)c(C(F)(F)F)c2)nn1` returned an IC50 with PC-3 of 69 µM.
Take `CC(C)(O)c1cn(-c2cc(C(F)(F)F)cc(C(F)(F)F)c2)nn1`: inhibition in the series on PC-3 was half-maximal at 42 µM (IC50).

Usually IC50 stands for the concentration that inhibits the measured activity by half. Low readings indicate inhibition by little substance, high ones a need for much substance.

The record behind these values is ChEMBL document CHEMBL3259638, “Preliminary investigations into triazole derived androgen receptor antagonists” (Bioorg Med Chem, 2014).
